Data set [1] has as its target T1, Ectonucleotide pyrophosphatase/phosphodiesterase family member 1 (Homo sapiens, UniProt P22413).
T1 sequence (P22413 whole entry): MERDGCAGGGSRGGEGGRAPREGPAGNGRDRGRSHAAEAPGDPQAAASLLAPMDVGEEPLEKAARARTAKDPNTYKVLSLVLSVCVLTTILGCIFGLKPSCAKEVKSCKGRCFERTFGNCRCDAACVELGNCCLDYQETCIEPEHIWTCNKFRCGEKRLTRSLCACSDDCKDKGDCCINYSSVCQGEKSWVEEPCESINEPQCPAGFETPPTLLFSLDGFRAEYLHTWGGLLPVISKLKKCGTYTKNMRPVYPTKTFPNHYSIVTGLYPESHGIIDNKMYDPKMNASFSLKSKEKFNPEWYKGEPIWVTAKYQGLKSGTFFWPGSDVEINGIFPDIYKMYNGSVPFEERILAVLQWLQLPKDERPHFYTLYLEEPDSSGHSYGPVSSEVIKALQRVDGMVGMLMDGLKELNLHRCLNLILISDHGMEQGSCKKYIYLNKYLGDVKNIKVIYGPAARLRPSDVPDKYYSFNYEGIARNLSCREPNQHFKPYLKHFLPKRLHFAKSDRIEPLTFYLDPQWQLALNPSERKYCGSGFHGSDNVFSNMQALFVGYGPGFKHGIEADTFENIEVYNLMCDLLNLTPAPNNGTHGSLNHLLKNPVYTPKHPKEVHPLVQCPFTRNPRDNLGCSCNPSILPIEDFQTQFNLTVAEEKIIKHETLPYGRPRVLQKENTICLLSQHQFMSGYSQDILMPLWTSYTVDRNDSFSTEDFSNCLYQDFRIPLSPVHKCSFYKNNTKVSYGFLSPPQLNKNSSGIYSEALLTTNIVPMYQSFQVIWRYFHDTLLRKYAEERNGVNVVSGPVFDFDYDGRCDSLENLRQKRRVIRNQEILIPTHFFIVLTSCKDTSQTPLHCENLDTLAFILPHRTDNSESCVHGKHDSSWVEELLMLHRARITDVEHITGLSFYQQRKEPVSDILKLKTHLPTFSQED
The data set can be described thus: Inhibition of human recombinant NPP1 expressed in insect SF9 cells using ATP as substrate preincubated with substrate followed by protein addition and subsequent incubation for 30 mins by capillary electrophoresis.

For data set [2], the target named is T2, Ectonucleotide pyrophosphatase/phosphodiesterase family member 1 (Homo sapiens) (UniProt P22413).
T2 sequence (whole entry): T1 sequence (P22413 whole entry)
The experiment in a line: Inhibition of human recombinant NPP1 expressed in insect SF9 cells using ATP as substrate at 10 uM preincubated with substrate followed by protein addition and subsequent incubation for 30 mins by capillary electrophoresis.

Data set [3] deals with T1, Ectonucleotide pyrophosphatase/phosphodiesterase family member 1. The experiment in a line: Competitive inhibition of human NPP1 transfected in HEK293 cells using p-Nph-5'-TMP as substrate preincubated for 3 mins followed by substrate addition measured after 15 mins by Cornish-Bowden plot analysis.
The nature of data set [4]: Drug level in MgCl2/CaCl2/CHES buffer treated with (Z)-2-((5-iodofuran-2-yl)methylene)benzo[d]thiazolo[3,2-a]imidazol-3(2H)-one at pH 9 after 24 hrs by LC-MS analysis. Format: physicochemical. Conditions: pH 9, 24 h.
Data set [5] is described as follows: Retention time of the compound in MgCl2/CaCl2/CHES buffer at pH 9 by LC-MS analysis. Format: physicochemical.
Data set [6] has as its target T1, Ectonucleotide pyrophosphatase/phosphodiesterase family member 1. The experiment in a line: Competitive inhibition of human NPP1 expressed in African green monkey COS7 cells using ATP as substrate after 20 mins by Michaelis-Menten plot analysis. The data set is classed as cell-based, COS-7.

The text below walks through data of ChEMBL document CHEMBL3813632, “Thiazolo[3,2-a]benzimidazol-3(2H)-one derivatives: Structure-activity relationships of selective nucleotide pyrophosphatase/phosphodiesterase1 (NPP1) inhibitors” (Bioorg Med Chem, 2016).

`O=c1[nH]c2ccccc2cc1/C=c1/sc2nc3ccccc3n2c1=O`: the Ki in data set [1] is over 10 µM. In addition, the inhibition in data set [2] amounted to 30%. The matching figures for `O=c1/c(=C/c2ccc(Sc3ccccc3)o2)sc2nc3ccccc3n12`: at least 10 µM and 40%. For `O=c1/c(=C/c2cccc(OCc3ccccc3)c2)sc2nc3ccccc3n12`, in data set [1], the inhibition constant (Ki) was over 10 µM. Besides, the inhibition in data set [2] was 10%.

Turning to `Cc1ccc(/C=c2\sc3nc4ccccc4n3c2=O)o1`, the inhibitory constant (Ki) in data set [1] was found to be 2.11 µM. With `O=c1/c(=C/c2ccccn2)sc2nc3ccccc3n12`, the inhibitory constant (Ki) in data set [1] was over 10 µM. In data set [2], the inhibition came to 39%.

Regarding `CCN(CC)c1ncnc2c1ncn2[C@@H]1O[C@H](COP(=O)(O)OP(=O)(O)C(Br)(Br)P(=O)(O)O)[C@@H](O)[C@H]1O`, in data set [3], the Ki was found to be 12 µM. `O=c1/c(=C/c2ccc(N3CCOCC3)cc2)sc2nc3ccccc3n12`: the Ki in data set [1] is 8.91 µM.

As to `C/C=c1\sc2nc3ccccc3n2c1=O`, the Ki in data set [1] was over 10 µM. Also, the inhibition in data set [2] was 0%. The matching figures for `O=c1/c(=C/c2ccccc2)sc2nc3ccccc3n12`: over 10 µM and 31%.

As for `O=c1/c(=C/c2ccc(Br)o2)sc2nc3ccccc3n12`, the Ki in data set [1] was 0.61 µM. In the case of `O=c1/c(=C\c2ccc3ccccc3c2)sc2nc3ccccc3n12`, the Ki in data set [1] is over 10 µM. The inhibition in data set [2] is 24%. Turning to `O=C(/C(O)=C\c1ccc(I)o1)n1c(=S)[nH]c2ccccc21`, in data set [4], the Drug metabolism entry is “metabolite_detected”. Besides, the Retention_time in data set [5] is 3.8 min. As for `O=c1/c(=C/c2ccc(I)cc2)sc2nc3ccccc3n12`, the Ki in data set [1] is over 10 µM. Moreover, the inhibition in data set [2] is 31%. With `O=c1/c(=C/c2ccco2)sc2nc3ccccc3n12`, the Ki in data set [1] was determined as 0.981 µM. Consider `O=c1/c(=C/C=C/c2ccccc2)sc2nc3ccccc3n12`, for which the Ki in data set [1] is over 10 µM. In data set [2], the inhibition came out at 24%. Regarding `CC1CCN(c2cc(N3CCC(C)CC3)c([N+](=O)[O-])cc2/C=c2/sc3nc4ccccc4n3c2=O)CC1`, the Ki in data set [1] was found to be 8.56 µM. Still for that read-out and setting: the result for `O=c1/c(=C/c2ccc([N+](=O)[O-])o2)sc2nc3ccccc3n12` reads 1.07 µM. For `O=c1/c(=C/c2cccs2)sc2nc3ccccc3n12`, the Ki in data set [1] was at least 10 µM. Also, the inhibition in data set [2] amounted to 43%. For `O=c1/c(=C\c2ccccc2)sc2nc3ccccc3n12`, in that order: over 10 µM and 10%. `O=c1/c(=C/c2ccc(Cl)cc2)sc2nc3ccccc3n12`: in data set [1], the Ki is over 10 µM. The inhibition in data set [2] was 32%. Regarding `O=c1/c(=C/c2cccc(Cc3ccccc3)c2)sc2nc3ccccc3n12`, the Ki in data set [1] is over 10 µM. In data set [2], the inhibition was 11%. The matching figures for `O=c1/c(=C/c2ccc(-c3ccccc3)o2)sc2nc3ccccc3n12`: at least 10 µM and 48%. For `Cc1ccc(/C=c2\sc3nc4ccccc4n3c2=O)cc1`, in that order: over 10 µM and 28%. The compound `Nc1c(S(=O)(=O)O)cc(Nc2ccc(Nc3nc(Cl)nc(Nc4cccc(S(=O)(=O)O)c4)n3)c(S(=O)(=O)O)c2)c2c1C(=O)c1ccccc1C2=O` [REACTIVE BLUE 2] registered an inhibitory constant (Ki) in data set [6] of 0.52 µM. For `COc1cc(/C=c2/sc3nc4ccccc4n3c2=O)ccc1OCc1nnn[nH]1`, the inhibitory constant (Ki) in data set [1] was over 10 µM. The inhibition in data set [2] stood at 21%. As for `CN(C)c1ccc(/C=c2\sc3nc4ccccc4n3c2=O)o1`, the inhibition constant Ki in data set [1] was found to be 4.21 µM. `O=c1/c(=C/c2cccc(Oc3ccccc3)c2)sc2nc3ccccc3n12`: in data set [1], the inhibition constant (Ki) is over 10 µM. Moreover, the inhibition in data set [2] is 13%.

As a reminder, the Ki is the equilibrium dissociation constant of an inhibitor or competing ligand from its target. What is called inhibition is how much of the control response was suppressed.
